Test results published in ChEMBL document CHEMBL4431368, “Development of single and mixed isoform selectivity PI3Kδ inhibitors by targeting Asn836 of PI3Kδ” (Bioorg Med Chem Lett, 2016).
Calls of active or inactive are those of the source. The calls are words filed in the database; no cut-off is given here.

Columns and labels:
[1] = molecular target: Phosphatidylinositol 4,5-bisphosphate 3-kinase catalytic subunit beta isoform (Homo sapiens, UniProt P42338); assay: Inhibition of PI3Kbeta (unknown origin) expressed in baculovirus expression system by kinase-glo luminescence assay
[2] = molecular target: Phosphatidylinositol 4,5-bisphosphate 3-kinase catalytic subunit gamma isoform (Homo sapiens, UniProt P48736); assay: Inhibition of PI3Kgamma (unknown origin) expressed in baculovirus expression system by kinase-glo luminescence assay
[3] = molecular target: Phosphatidylinositol 4,5-bisphosphate 3-kinase catalytic subunit alpha isoform (Homo sapiens, UniProt P42336); assay: Inhibition of PI3Kalpha (unknown origin) expressed in baculovirus expression system by kinase-glo luminescence assay
[4] = molecular target: T1, Phosphatidylinositol 4,5-bisphosphate 3-kinase catalytic subunit delta isoform (Homo sapiens, UniProt O00329); assay: Inhibition of PI3Kdelta (unknown origin) expressed in baculovirus expression system by kinase-glo luminescence assay
T1 sequence (O00329 whole entry): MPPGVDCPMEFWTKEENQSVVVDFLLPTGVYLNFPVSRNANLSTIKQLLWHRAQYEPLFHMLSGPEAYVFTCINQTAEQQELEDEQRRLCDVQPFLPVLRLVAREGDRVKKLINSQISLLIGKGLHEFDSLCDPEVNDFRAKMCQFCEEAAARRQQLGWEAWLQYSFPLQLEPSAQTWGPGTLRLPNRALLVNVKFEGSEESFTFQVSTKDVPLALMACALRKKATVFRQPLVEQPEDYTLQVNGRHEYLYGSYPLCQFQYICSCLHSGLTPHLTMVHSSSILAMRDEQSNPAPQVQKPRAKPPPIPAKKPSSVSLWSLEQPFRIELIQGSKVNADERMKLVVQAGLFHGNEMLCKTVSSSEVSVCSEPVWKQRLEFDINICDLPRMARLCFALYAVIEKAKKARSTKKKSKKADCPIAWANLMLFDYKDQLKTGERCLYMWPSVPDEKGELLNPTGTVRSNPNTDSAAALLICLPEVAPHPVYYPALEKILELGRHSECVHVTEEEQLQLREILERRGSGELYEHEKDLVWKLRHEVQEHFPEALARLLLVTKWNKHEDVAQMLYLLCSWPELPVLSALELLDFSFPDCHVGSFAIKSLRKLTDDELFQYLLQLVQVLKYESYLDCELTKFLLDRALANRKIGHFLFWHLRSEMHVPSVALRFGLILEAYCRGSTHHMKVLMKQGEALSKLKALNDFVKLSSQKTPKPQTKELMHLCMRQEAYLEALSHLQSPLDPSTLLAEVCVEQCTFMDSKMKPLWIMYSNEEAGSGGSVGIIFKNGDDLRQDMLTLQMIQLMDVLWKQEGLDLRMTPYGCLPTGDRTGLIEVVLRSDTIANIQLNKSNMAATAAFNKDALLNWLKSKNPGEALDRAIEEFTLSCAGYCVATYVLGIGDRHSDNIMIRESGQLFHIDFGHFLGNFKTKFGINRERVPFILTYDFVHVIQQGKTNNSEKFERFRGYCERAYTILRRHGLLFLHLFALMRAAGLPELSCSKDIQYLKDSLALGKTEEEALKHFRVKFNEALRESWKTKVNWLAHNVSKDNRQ

Homo sapiens [5] = species on record: Homo sapiens; assay: Selectivity ratio of IC50 for PI3Kdelta N836D mutant (unknown origin) expressed in Sf21 cells to IC50 for wild type PI3Kdelta (unknown origin) expressed in baculovirus expression system
[6] = molecular target: Phosphatidylinositol 4,5-bisphosphate 3-kinase catalytic subunit delta isoform (Homo sapiens, UniProt O00329, N836D); assay: Inhibition of PI3Kdelta N836D mutant (unknown origin) expressed in Sf21 cells co-expressing p85 by kinase-glo luminescence assay
[7] = molecular target: T2, Phosphatidylinositol 4,5-bisphosphate 3-kinase catalytic subunit delta isoform (Homo sapiens) (UniProt O00329); assay: Inhibition of PI3Kdelta in human NAMALWA cells assessed as suppression of Akt S473 phosphorylation levels at […] after 2 hrs by Western blot analysis; type: cell-based
T2 sequence (whole entry): T1 sequence (O00329 whole entry)

[8] = Inhibition of PI3Kalpha Q859D mutant (unknown origin) expressed in baculovirus expression system by kinase-glo luminescence assay; design: species or system Homo sapiens
Homo sapiens [9] = species on record: Homo sapiens; assay: Selectivity ratio of IC50 for wild type PI3Kbeta (unknown origin) expressed in baculovirus expression system to IC50 for PI3Kbeta D862 mutant (unknown origin) expressed in baculovirus expression system
[10] = Inhibition of PI3Kbeta D862 mutant (unknown origin) expressed in baculovirus expression system by kinase-glo luminescence assay; design: species or system Homo sapiens

Sequence of Phosphatidylinositol 4,5-bisphosphate 3-kinase catalytic subunit beta isoform (P42338 whole entry, canonical isoform): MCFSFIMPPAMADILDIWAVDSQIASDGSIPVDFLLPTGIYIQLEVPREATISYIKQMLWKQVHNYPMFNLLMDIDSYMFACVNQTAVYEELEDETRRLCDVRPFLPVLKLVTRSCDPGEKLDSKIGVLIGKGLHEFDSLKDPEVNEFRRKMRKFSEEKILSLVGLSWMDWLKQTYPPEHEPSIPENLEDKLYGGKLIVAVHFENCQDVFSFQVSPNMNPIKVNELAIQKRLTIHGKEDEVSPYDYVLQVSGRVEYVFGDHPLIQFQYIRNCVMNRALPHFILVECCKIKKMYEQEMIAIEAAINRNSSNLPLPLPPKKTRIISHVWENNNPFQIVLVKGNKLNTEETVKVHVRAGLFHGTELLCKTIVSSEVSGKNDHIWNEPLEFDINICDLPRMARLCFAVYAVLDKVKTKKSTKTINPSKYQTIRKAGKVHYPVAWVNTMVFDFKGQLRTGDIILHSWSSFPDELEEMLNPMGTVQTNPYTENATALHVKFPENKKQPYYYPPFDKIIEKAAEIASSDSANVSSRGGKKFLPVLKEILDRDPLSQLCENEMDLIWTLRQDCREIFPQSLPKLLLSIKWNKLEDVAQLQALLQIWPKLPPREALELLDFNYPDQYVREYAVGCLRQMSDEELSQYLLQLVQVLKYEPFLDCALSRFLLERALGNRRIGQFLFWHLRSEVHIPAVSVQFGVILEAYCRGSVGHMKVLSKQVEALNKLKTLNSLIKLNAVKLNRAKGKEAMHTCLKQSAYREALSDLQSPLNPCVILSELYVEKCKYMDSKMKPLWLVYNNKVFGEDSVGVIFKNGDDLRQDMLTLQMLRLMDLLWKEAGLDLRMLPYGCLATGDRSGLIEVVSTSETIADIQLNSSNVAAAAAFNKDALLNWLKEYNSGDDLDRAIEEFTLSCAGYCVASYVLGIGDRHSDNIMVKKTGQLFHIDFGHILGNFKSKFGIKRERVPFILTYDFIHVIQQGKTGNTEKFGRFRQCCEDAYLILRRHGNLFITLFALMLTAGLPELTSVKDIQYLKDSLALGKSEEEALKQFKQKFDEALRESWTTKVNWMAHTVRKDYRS
Sequence of Phosphatidylinositol 4,5-bisphosphate 3-kinase catalytic subunit gamma isoform (P48736 whole entry, canonical isoform): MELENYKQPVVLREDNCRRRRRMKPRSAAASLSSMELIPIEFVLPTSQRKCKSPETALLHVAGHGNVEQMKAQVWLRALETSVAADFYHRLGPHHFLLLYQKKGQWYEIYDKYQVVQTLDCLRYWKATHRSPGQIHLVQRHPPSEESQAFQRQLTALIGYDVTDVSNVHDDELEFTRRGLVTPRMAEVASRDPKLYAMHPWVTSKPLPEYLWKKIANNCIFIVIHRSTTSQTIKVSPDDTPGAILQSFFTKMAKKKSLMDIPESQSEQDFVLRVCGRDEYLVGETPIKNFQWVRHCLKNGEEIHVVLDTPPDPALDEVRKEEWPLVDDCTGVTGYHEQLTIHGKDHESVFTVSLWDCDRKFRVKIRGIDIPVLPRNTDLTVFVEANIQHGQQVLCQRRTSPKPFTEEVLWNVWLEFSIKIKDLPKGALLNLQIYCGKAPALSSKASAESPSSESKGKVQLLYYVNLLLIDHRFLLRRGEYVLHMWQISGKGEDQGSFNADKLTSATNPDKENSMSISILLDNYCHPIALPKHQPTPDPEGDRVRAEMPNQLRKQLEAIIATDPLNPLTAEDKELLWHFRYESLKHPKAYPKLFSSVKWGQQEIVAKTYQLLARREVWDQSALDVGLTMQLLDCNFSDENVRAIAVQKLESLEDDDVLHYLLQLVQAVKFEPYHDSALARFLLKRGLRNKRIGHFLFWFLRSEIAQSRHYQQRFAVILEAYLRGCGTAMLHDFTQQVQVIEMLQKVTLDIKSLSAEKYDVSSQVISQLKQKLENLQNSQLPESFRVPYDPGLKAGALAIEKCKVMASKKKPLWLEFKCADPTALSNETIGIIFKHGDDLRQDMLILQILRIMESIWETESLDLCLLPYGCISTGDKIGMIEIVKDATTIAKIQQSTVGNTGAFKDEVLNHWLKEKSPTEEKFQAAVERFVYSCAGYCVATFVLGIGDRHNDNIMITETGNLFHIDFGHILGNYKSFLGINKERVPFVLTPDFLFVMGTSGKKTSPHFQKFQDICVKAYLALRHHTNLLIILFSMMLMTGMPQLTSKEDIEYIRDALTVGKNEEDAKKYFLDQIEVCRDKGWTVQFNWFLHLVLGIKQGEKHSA
Sequence of Phosphatidylinositol 4,5-bisphosphate 3-kinase catalytic subunit delta isoform (Homo sapiens, UniProt O00329, N836D) (O00329 whole entry N836D, canonical isoform): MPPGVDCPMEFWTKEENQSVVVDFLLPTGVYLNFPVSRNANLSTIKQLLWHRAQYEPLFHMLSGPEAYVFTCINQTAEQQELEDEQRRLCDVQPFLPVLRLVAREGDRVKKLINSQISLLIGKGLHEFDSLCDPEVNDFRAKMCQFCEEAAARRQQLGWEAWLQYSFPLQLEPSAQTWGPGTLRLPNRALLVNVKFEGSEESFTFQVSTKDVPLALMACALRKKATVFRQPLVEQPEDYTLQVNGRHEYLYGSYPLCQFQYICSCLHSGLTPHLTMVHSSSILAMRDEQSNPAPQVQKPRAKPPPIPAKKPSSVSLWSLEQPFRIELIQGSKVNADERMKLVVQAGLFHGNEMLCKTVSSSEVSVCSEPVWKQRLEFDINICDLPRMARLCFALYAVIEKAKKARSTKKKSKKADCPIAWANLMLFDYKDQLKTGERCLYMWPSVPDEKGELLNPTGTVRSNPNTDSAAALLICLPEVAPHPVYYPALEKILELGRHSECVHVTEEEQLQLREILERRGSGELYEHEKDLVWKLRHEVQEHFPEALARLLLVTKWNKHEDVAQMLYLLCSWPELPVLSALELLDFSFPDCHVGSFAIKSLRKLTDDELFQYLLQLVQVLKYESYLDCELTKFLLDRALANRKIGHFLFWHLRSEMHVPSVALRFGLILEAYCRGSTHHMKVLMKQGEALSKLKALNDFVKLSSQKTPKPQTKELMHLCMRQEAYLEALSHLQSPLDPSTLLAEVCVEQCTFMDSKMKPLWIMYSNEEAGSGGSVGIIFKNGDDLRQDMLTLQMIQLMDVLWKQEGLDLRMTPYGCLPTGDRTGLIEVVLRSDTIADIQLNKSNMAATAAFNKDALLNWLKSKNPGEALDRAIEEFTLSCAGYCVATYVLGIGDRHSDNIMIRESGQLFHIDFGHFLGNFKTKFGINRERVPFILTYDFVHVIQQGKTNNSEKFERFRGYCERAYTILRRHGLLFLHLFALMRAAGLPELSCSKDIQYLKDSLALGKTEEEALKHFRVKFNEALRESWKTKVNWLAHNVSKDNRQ
Sequence of Phosphatidylinositol 4,5-bisphosphate 3-kinase catalytic subunit alpha isoform (P42336 whole entry, canonical isoform): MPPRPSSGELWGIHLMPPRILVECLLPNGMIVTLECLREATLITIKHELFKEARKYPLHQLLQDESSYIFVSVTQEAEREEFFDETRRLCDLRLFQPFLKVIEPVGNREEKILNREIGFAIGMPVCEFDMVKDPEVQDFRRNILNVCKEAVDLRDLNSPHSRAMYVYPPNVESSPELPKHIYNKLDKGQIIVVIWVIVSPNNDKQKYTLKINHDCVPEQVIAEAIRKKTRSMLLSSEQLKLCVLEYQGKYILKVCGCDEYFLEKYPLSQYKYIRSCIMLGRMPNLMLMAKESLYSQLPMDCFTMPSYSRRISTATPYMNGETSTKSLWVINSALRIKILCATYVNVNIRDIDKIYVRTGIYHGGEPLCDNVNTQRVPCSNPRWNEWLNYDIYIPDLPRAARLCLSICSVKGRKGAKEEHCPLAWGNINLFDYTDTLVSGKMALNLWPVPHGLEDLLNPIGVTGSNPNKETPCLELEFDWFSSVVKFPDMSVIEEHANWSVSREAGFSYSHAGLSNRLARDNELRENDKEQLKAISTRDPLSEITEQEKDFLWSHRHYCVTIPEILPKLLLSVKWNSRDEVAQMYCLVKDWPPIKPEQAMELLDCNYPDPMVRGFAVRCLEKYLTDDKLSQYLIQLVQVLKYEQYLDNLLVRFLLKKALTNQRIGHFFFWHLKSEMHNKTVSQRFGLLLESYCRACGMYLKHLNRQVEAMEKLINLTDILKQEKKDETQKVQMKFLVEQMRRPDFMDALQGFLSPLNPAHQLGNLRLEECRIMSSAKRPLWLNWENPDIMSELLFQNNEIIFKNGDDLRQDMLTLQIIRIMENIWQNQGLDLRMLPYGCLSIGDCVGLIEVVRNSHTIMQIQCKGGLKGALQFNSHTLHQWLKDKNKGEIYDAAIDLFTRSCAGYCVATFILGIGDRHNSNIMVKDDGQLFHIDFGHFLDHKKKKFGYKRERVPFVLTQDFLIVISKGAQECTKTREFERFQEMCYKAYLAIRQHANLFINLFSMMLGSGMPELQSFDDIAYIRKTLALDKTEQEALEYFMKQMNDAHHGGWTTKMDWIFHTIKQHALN

IC50 [1] [nM]	IC50 [2] [nM]	IC50 [3] [nM]	IC50 [4] [nM]	IC50 [6] [nM]	inhibition [7]	Structure (SMILES)	Ratio IC50 (Homo sapiens [5])	IC50 [8] [nM]	Ratio IC50 (Homo sapiens [9])	IC50 [10] [nM]
166	445	83	38	–	–	NC(=O)CNC(=O)[C@@H]1CCCN(c2nc(N3CCOCC3)nc(-n3c(C(F)F)nc4ccccc43)n2)C1	–	–	–	–
602	440	191	144	–	–	CC(C)[C@H](NC(=O)C1CCN(c2nc(N3CCOCC3)nc(-n3c(C(F)F)nc4ccccc43)n2)CC1)C(N)=O	–	–	–	–
1720	1380	908	263	–	–	NC(=O)[C@H](Cc1ccccc1)NC(=O)[C@@H]1CCCN(c2nc(N3CCOCC3)nc(-n3c(C(F)F)nc4ccccc43)n2)C1	–	–	–	–
217	64	183	38	–	–	O=C(O)C1CCN(c2nc(N3CCOCC3)nc(-n3c(C(F)F)nc4ccccc43)n2)CC1	–	–	–	–
215	231	40	42	–	–	O=C(O)[C@H]1CCCN(c2nc(N3CCOCC3)nc(-n3c(C(F)F)nc4ccccc43)n2)C1	–	–	–	–
162	521	67	29	–	–	NC(=O)[C@H](CO)NC(=O)C1CCN(c2nc(N3CCOCC3)nc(-n3c(C(F)F)nc4ccccc43)n2)CC1	–	–	–	–
428	247	183	163	–	–	O=C(O)[C@@H]1CCCN(c2nc(N3CCOCC3)nc(-n3c(C(F)F)nc4ccccc43)n2)C1	–	–	–	–
342	1980	358	57	–	–	NC(=O)[C@H](Cc1ccccc1)NC(=O)[C@H]1CCCN(c2nc(N3CCOCC3)nc(-n3c(C(F)F)nc4ccccc43)n2)C1	–	–	–	–
207	434	123	40	–	–	C[C@H](NC(=O)C1CCN(c2nc(N3CCOCC3)nc(-n3c(C(F)F)nc4ccccc43)n2)CC1)C(N)=O	–	–	–	–

The remaining lines, values behind:

Structure (SMILES)	IC50 [1] [nM]	IC50 [2] [nM]	IC50 [3] [nM]	IC50 [4] [nM]	IC50 [6] [nM]	inhibition [7]	Ratio IC50 (Homo sapiens [5])	IC50 [8] [nM]	Ratio IC50 (Homo sapiens [9])	IC50 [10] [nM]
NC(=O)CNC(=O)[C@H]1CCCN(c2nc(N3CCOCC3)nc(-n3c(C(F)F)nc4ccccc43)n2)C1	24	194	32	34	95	–	3	–	–	–
N[C@H]1CC[C@@H](C(=O)N2CCN(c3nc(N4CCOCC4)nc(-n4c(C(F)F)nc5ccccc54)n3)CC2)CC1	3360	> 10000	3900	143	–	–	–	–	–	–
O=C([C@H]1CCCN1)N1CCN(c2nc(N3CCOCC3)nc(-n3c(C(F)F)nc4ccccc43)n2)CC1	–	5860	2610	–	9	Active	–	–	–	–
NC(=O)CNC(=O)C1CCN(c2nc(N3CCOCC3)nc(-n3c(C(F)F)nc4ccccc43)n2)CC1	329	496	98	66	171	–	2.6	–	–	–
O=C(C[C@@H]1CCCN1)N1CCN(c2nc(N3CCOCC3)nc(-n3c(C(F)F)nc4ccccc43)n2)CC1	146	5760	2050	22	7	–	–	–	–	–
O=C([C@@H]1CCCCN1)N1CCN(c2nc(N3CCOCC3)nc(-n3c(C(F)F)nc4ccccc43)n2)CC1	59	5530	2860	69	24	–	–	–	–	–
O=C(CN1CCN(c2nc(N3CCOCC3)nc(-n3c(C(F)F)nc4ccccc43)n2)CC1)[C@H]1CCCN1	60	6080	1770	52	4	–	–	–	–	–
O=C([C@H]1CCCCN1)N1CCN(c2nc(N3CCOCC3)nc(-n3c(C(F)F)nc4ccccc43)n2)CC1	775	3590	2370	50	36	–	–	–	–	–
O=C([C@@H]1CCCN1)N1CCN(c2nc(N3CCOCC3)nc(-n3c(C(F)F)nc4ccccc43)n2)CC1	–	–	–	–	–	Active	–	–	–	–
NC(=O)[C@H](Cc1ccccc1)NC(=O)C1CCN(c2nc(N3CCOCC3)nc(-n3c(C(F)F)nc4ccccc43)n2)CC1	513	708	190	44	–	–	–	–	–	–
C[C@@H](NC(=O)C1CCN(c2nc(N3CCOCC3)nc(-n3c(C(F)F)nc4ccccc43)n2)CC1)C(N)=O	601	536	114	44	1900	Active	43	100	5	123
